Source: patent US7589062B2, “Two synthetic peptides for treatment and prevention of cancers” (priority 2002, dated 2009)
Where no end group is shown, it is not given here.

Assays:
SP/2 - mouse myeloma = test: Cytolytic effect on cancer cells in culture, read microscopically; type: cell-based
HT-29 - cancer of colon = test: as above; type: cell-based, human
Protocol: (§1) Biological cytolytic activity of AT and KT at various concentrations ranging from […], 6.25, 12.5 and 25 μg/ml were tested on human cancer cells and SP/2 mouse myeloma cells. The combination AT+KT was 50% by weight of each.

[1] = test system: Sk-ov-3 - cancer of ovary; test: as above; type: cell-based, human
Protocol: as §1

BT-20 - cancer of breast = test: as above; type: cell-based, human
Protocol: as §1

[2] = test system: HBL-100 - cancer of breast; test: as above; type: cell-based, human
Protocol: as §1

SP/2 cancer cells = test: Anti cancer activity in vivo: survival of mice injected i.p. with SP/2 cancer cells (ascitic tumors); details: Balb/c mice, 2 million SP/2 cells i.p.; 100 μg/mouse for seven consecutive days; PBS control 23 days
Protocol: Anti Cancer Activity of Synthetic AT and KT In Vivo: Adult Balb/c mice were injected intra-peritoneally with 0.5 ml containing 2 million SP/2 cancer cells. Mice were divided into four groups. Starting from day one of post injection the mice were treated with AT and KT individually and the combination of both at 200 μg/ml concentration. Doses of 0.5 ml containing 100 μg/mouse were given for seven consecutive days and the control mice received 0.5 ml PBS.

CCL-13 - cancer of mouth = test: Cytolytic effect on cancer cells in culture, read microscopically; type: cell-based, human
SP/2 cells = test: Cytolytic activity of trypsin digested fragments of AT and KT on SP/2 cells; type: cell-based, mouse; details: 10^5 SP/2 cells, 20-1.0 μg/ml, read after three days
Protocol: Biological Activity of Fragments on SP/2 cells: The cytolytic activity of the trypsin digested fragments of AT and KT were tested on 10^5 SP/2 cells. Dulbecco Modified Eagle's Medium (DMEM) containing 10% newborn calf serum (NBCS), L-glutamine and antibiotics penicillin and streptomycin was used to grow SP/2 cells. Initially, each fraction was tested on cells grown in 48 well plate at 37° C. in a humid CO2 incubator. The serum free medium containing different concentrations such as 20, 10, 5, 2.5 and 1.0 μg/ml of each fragment was tested. Control cells received PBS to serve as controls.
The tests were read after three days. […] Those fragments were considered as the active domains for cancer cell inhibitor. […] The fragment 6 for AT and the fragment 10 for KT were considered as the active domains for cytolytic activity.

[3] = comparison of syn KT with syn AT

Sequence | % Cytolyic cells SP/2 (SP/2 - mouse myeloma; 3.12 μg/ml) [%] | % Cytolyic cells SP/2 (SP/2 - mouse myeloma; 6.25 μg/ml) [%] | % Cytolyic cells SP/2 (SP/2 - mouse myeloma; 12.5 μg/ml) [%] | % Cytolyic cells SP/2 (SP/2 - mouse myeloma; 25 μg/ml) [%] | % Cytolyic cells HT-29 (HT-29 - cancer of colon; 3.12 μg/ml) [%] | % Cytolyic cells HT-29 (HT-29 - cancer of colon; 6.25 μg/ml) [%] | % Cytolyic cells HT-29 (HT-29 - cancer of colon; 12.5 μg/ml) [%] | % Cytolyic cells HT-29 (HT-29 - cancer of colon; 25 μg/ml) [%] | % Cytolyic cells Sk-ov-3 ([1]; 3.12 μg/ml) [%] | % Cytolyic cells Sk-ov-3 ([1]; 6.25 μg/ml) [%] | % Cytolyic cells Sk-ov-3 ([1]; 12.5 μg/ml) [%] | % Cytolyic cells Sk-ov-3 ([1]; 25 μg/ml) [%] | % Cytolyic cells BT-20 (BT-20 - cancer of breast; 3.12 μg/ml) [%] | % Cytolyic cells BT-20 (BT-20 - cancer of breast; 6.25 μg/ml) [%] | % Cytolyic cells BT-20 (BT-20 - cancer of breast; 12.5 μg/ml) [%] | % Cytolyic cells BT-20 (BT-20 - cancer of breast; 25 μg/ml) [%] | % Cytolyic cells HBL-100 ([2]; 3.12 μg/ml) [%] | % Cytolyic cells HBL-100 ([2]; 6.25 μg/ml) [%] | % Cytolyic cells HBL-100 ([2]; 12.5 μg/ml) [%] | % Cytolyic cells HBL-100 ([2]; 25 μg/ml) [%] | other results
FCRFLLCPSR (cysteine pairing not given here) [Atroporin] | 0 | 0 | 50 | 100 | 0 | 0 | 100 | 100 | 0 | 100 | 100 | 100 | 0 | 0 | 50 | 100 | 0 | 0 | 50 | 100 | Cytolytic effect compared in similar concentration, Sk-ov-3 ([1]; comparison of syn AT with the other peptide): more cytolytic; Survival (incubation period for development of ascitic tumors to cause death) (SP/2 cancer cells): 30 days; % Cytolyic cells CCL-13 (CCL-13 - cancer of mouth; 3.12 μg/ml): 0%; % Cytolyic cells CCL-13 (CCL-13 - cancer of mouth; 6.25 μg/ml): 50%; % Cytolyic cells CCL-13 (CCL-13 - cancer of mouth; 12.5 μg/ml): 100%; % Cytolyic cells CCL-13 (CCL-13 - cancer of mouth; 25 μg/ml): 100%
FCRFLLCPSRSLL (cysteine pairing not given here) [fragment 6 for AT] | – | – | – | – | – | – | – | – | – | – | – | – | – | – | – | – | – | – | – | – | Cytolytic activity of trypsin digested fragments, ranking among fragments (SP/2 cells): most active
PPGNQPDADS [Kaotree] | 0 | 50 | 100 | 100 | 0 | 0 | 100 | 100 | 0 | 50 | 100 | 100 | 0 | 0 | 75 | 100 | 0 | 50 | 100 | 100 | Cytolytic effect compared in similar concentration, BT-20 (BT-20 - cancer of breast; [3]): more cytolytic than AT; Cytolytic effect compared in similar concentration, HBL-100 [2, 3]: more cytolytic than AT; Survival (incubation period for development of ascitic tumors to cause death) (SP/2 cancer cells): 37 days; % Cytolyic cells CCL-13 (CCL-13 - cancer of mouth; 3.12 μg/ml): 0%; % Cytolyic cells CCL-13 (CCL-13 - cancer of mouth; 6.25 μg/ml): 0%; % Cytolyic cells CCL-13 (CCL-13 - cancer of mouth; 12.5 μg/ml): 100%; % Cytolyic cells CCL-13 (CCL-13 - cancer of mouth; 25 μg/ml): 100%
PPGNQPDADSN [fragment 10 for KT] | – | – | – | – | – | – | – | – | – | – | – | – | – | – | – | – | – | – | – | – | Cytolytic activity of trypsin digested fragments, ranking among fragments (SP/2 cells): most active
